Holding throughout (assay type): in vivo
One test deals with ZEAMX. Description: Pre-emergence biological efficacy (Table 3). As to conditions: 312 h, after 13 days, read-out: evaluation (100=total damage to plant; 0=no damage to plant). An outline of the steps: (§1)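 Pre-emergence spray one day after sowing; the compound, made up as a 50 g/l AMA-based formulation, was diluted with 0.2% Genapol X080. Visual damage rating 13 days later on a 0-100 scale, with glasshouse conditions of 24/18° C day/night and 15 h light.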

The next test concerns IPOHE. Description: Pre-emergence biological efficacy (Table 3). As to conditions: Ipomoea hederacea, 312 h, after 13 days, read-out: evaluation (100=total damage to plant; 0=no damage to plant). In outline: as §1
In another test the test system is AMARE. Nature of the test: Pre-emergence biological efficacy (Table 3). As to conditions: Amaranthus retroflexus, 312 h, after 13 days, read-out: evaluation (100=total damage to plant; 0=no damage to plant). In outline:
as §1

Another test has as its system SETFA. Description: Pre-emergence biological efficacy (Table 3). Particulars: Setaria faberi, 312 h, after 13 days, read-out: evaluation (100=total damage to plant; 0=no damage to plant). In outline: as §1
The next test deals with AMAPA. Description: Pre-emergence biological efficacy (Table 3). As to conditions: 312 h, after 13 days, read-out: evaluation (100=total damage to plant; 0=no damage to plant). In outline:
as §1

A further test deals with ECHCG. Description: Pre-emergence biological efficacy (Table 3). As to conditions: Echinochloa crus-galli, 312 h, after 13 days, read-out: evaluation (100=total damage to plant; 0=no damage to plant). In outline: as §1
The next test concerns weeds and/or crops. Nature of the test: Post-emergence biological efficacy (Table 4). As to conditions: 312 h, evaluated after 13 days. In outline:
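Scores are visual damage (0 = none, 100 = total), read 13 days after treatment at 24/18 °C with 15 h light. Plants had been sown in standard soil and grown 14 days before a spray of compound in F50/acetone, diluted with 0.2% Genapol X080.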

The mark [1] stands for this setting: AMAPA, read-out: damage to plant AMAPA (100=total damage; 0=no damage).
[2] abbreviates: ZEAMX, read-out: damage to plant ZEAMX (100=total damage; 0=no damage).
The mark [3] stands for this setting: Amaranthus retroflexus, AMARE, read-out: damage to plant AMARE (100=total damage; 0=no damage).
Where [4] appears, read: Echinochloa crus-galli, ECHCG, read-out: damage to plant ECHCG (100=total damage; 0=no damage).
Where [5] appears, read: Ipomoea hederacea, IPOHE, read-out: damage to plant IPOHE (100=total damage; 0=no damage).
Where [6] appears, read: Setaria faberi, SETFA, read-out: damage to plant SETFA (100=total damage; 0=no damage).

From patent US20240251792A1, “WEED CONTROL METHOD” (SYNGENTA CROP PROTECTION AG, priority 2021, published 2024) come the findings set out here.

Structures are written as SMILES. Where two headings read alike, the source gives them in different places.

With `O=C(O)C(F)(F)c1cccc2c1CCO2` [Compound 1-420, 2-(2,3-Dihydrobenzofuran-4-yl)-2,2-difluoro-acetic acid], the plant injury at 1000 g/ha in the test on ZEAMX was determined as 10%. Further, the pest or weed control at 1000 g/ha with IPOHE was found to be 70%; in the test on AMARE, 80%; in the test with SETFA, 0%; in the test with AMAPA, 60%; in the test on ECHCG, 0%; in the test on weeds and/or crops (setting [1]) it was 70%. In addition, the pest or weed control at 1000 g/ha came to 10% in the test with weeds and/or crops (setting [2]); 80% in the test on weeds and/or crops (setting [3]); 10% in the test with weeds and/or crops (setting [4]); 70% in the test with weeds and/or crops (setting [5]); 10% with weeds and/or crops (setting [6]).
With `O=C(O)C(F)(F)c1cccc(Cl)c1OC(F)F` [Compound 1-452, 2-[3-Chloro-2-(difluoromethoxy)phenyl]-2,2-difluoro-acetic acid], the plant injury at 1000 g/ha in the test on ZEAMX was 30%. Besides, the pest or weed control at 1000 g/ha in the test with IPOHE was found to be 70%; with AMARE, 50%; with SETFA, 30%; in the test with AMAPA, 50%; with ECHCG, 10%; in the test with weeds and/or crops (setting [1]), 80%. Also, the pest or weed control at 1000 g/ha with weeds and/or crops (setting [2]) was 40%; in the test with weeds and/or crops (setting [3]), 80%; in the test on weeds and/or crops (setting [4]) it was 50%; in the test on weeds and/or crops (setting [5]), 70%; with weeds and/or crops (setting [6]) it was 50%.
`O=C(O)C(F)(F)c1cccc(OC(F)F)c1Cl` [Compound 1-459, 2-[2-Chloro-3-(difluoromethoxy)phenyl]-2,2-difluoro-acetic acid]: the plant injury at 1000 g/ha with ZEAMX was found to be 0%. Further, the pest or weed control at 1000 g/ha in the test on IPOHE was 90%; in the test on AMARE, 70%; with SETFA, 100%; with AMAPA it was 80%; in the test with ECHCG, 50%; with weeds and/or crops (setting [1]), 80%. The pest or weed control at 1000 g/ha was found to be 20% in the test on weeds and/or crops (setting [2]); 80% in the test on weeds and/or crops (setting [3]); 40% with weeds and/or crops (setting [4]); 90% with weeds and/or crops (setting [5]); 60% with weeds and/or crops (setting [6]).
On to `O=C(O)C(F)(F)c1ccccc1OC(F)(F)F` [Compound 1-465, 2,2-Difluoro-2-[2-(trifluoromethoxy)phenyl]acetic acid], for which, in the test on ZEAMX, the plant injury at 1000 g/ha amounted to 20%. In addition, the pest or weed control at 1000 g/ha in the test with IPOHE came out at 20%; in the test on AMARE it was 70%; with SETFA it was 20%; in the test with AMAPA, 70%; in the test on ECHCG, 20%; in the test on weeds and/or crops (setting [1]), 80%. Moreover, the pest or weed control at 1000 g/ha in the test on weeds and/or crops (setting [2]) was 20%; in the test on weeds and/or crops (setting [3]), 80%; with weeds and/or crops (setting [4]) it was 60%; in the test on weeds and/or crops (setting [5]) it was 70%; in the test with weeds and/or crops (setting [6]) it was 30%.
For `COc1c(C)cccc1C(F)(F)C(=O)O` [Compound 1-463, 2,2-Difluoro-2-(2-methoxy-3-methyl-phenyl)acetic acid], the plant injury at 1000 g/ha in the test with ZEAMX amounted to 0%. The pest or weed control at 1000 g/ha with IPOHE was found to be 50%; in the test with AMARE it was 50%; in the test on SETFA, 0%; in the test with AMAPA, 60%; in the test with ECHCG it was 0%; in the test on weeds and/or crops (setting [1]) it was 70%. Further, the pest or weed control at 1000 g/ha in the test with weeds and/or crops (setting [2]) was found to be 10%; in the test with weeds and/or crops (setting [3]), 80%; in the test on weeds and/or crops (setting [4]), 10%; with weeds and/or crops (setting [5]), 70%; in the test on weeds and/or crops (setting [6]), 30%.
In the case of `COC(=O)c1c(Cl)cccc1C(F)(F)C(=O)O` [Compound 1-444, 2-(3-Chloro-2-methoxycarbonyl-phenyl)-2,2-difluoro-acetic acid], the plant injury at 1000 g/ha in the test with ZEAMX came out at 0%. Also, the pest or weed control at 1000 g/ha with IPOHE was 50%; in the test on AMARE, 40%; in the test on SETFA it was 0%; with AMAPA, 60%; in the test on ECHCG it was 0%; with weeds and/or crops (setting [1]), 60%. Further, the pest or weed control at 1000 g/ha in the test on weeds and/or crops (setting [2]) was determined as 10%; with weeds and/or crops (setting [3]) it was 70%; in the test with weeds and/or crops (setting [4]) it was 10%; in the test on weeds and/or crops (setting [5]), 50%; with weeds and/or crops (setting [6]), 20%.
For the molecule `COc1c(C(F)(F)F)cccc1C(F)(F)C(=O)O` [Compound 1-464, 2,2-Difluoro-2-[2-methoxy-3-(trifluoromethyl)phenyl]acetic acid], the plant injury at 250 g/ha with ZEAMX (250 g/ha) was found to be 20%. The pest or weed control at 250 g/ha stood at 50% with IPOHE (250 g/ha); 40% in the test with AMARE (250 g/ha); 30% in the test on SETFA (250 g/ha); 60% with AMAPA (250 g/ha); 10% in the test on ECHCG (250 g/ha); 80% in the test with weeds and/or crops (setting [1]). Further, the pest or weed control at 250 g/ha turned out to be 10% in the test on weeds and/or crops (setting [2]); 80% in the test on weeds and/or crops (setting [3]); 70% in the test with weeds and/or crops (setting [4]); 60% in the test on weeds and/or crops (setting [5]); 70% with weeds and/or crops (setting [6]).
Consider `COc1cccc(C(F)(F)C(=O)O)c1C` [Compound 1-242, 2,2-Difluoro-2-(3-methoxy-2-methyl-phenyl)acetic acid], for which the plant injury at 1000 g/ha in the test with ZEAMX came out at 10%. Also, the pest or weed control at 1000 g/ha came out at 60% in the test with IPOHE; 70% in the test on AMARE; 10% with SETFA; 70% in the test with AMAPA; 0% in the test on ECHCG; 80% in the test with weeds and/or crops (setting [1]). Also, the pest or weed control at 1000 g/ha in the test on weeds and/or crops (setting [2]) is 10%; in the test with weeds and/or crops (setting [3]) it was 80%; in the test with weeds and/or crops (setting [4]), 10%; in the test on weeds and/or crops (setting [5]), 70%; in the test on weeds and/or crops (setting [6]), 10%.
Regarding `COc1c(F)ccc(C(F)(F)C(=O)O)c1F` [Compound 1-458, 2-(2,4-Difluoro-3-methoxy-phenyl)-2,2-difluoro-acetic acid], the plant injury at 1000 g/ha with ZEAMX was 20%. The pest or weed control at 1000 g/ha in the test on IPOHE stood at 80%; in the test with AMARE, 90%; with SETFA, 0%; with AMAPA, 90%; with ECHCG it was 0%; in the test on weeds and/or crops (setting [1]), 90%. Further, the pest or weed control at 1000 g/ha with weeds and/or crops (setting [2]) worked out at 40%; in the test on weeds and/or crops (setting [3]), 90%; with weeds and/or crops (setting [4]) it was 90%; with weeds and/or crops (setting [5]) it was 70%; with weeds and/or crops (setting [6]) it was 90%.
